Assay results: patent US20220088024A1, “METHODS FOR TREATING CANCER USING TOZADENANT” (Biotie Therapies, Inc., priority 2018, published 2022)
“And” between values parts separate entries of the source, which are not always exact repeats. Equal entries are not always repeated.

Key:
[1] = test system: AT-3ova CD73+ tumour (mouse breast carcinoma cell line AT-3); experiment: Example 2: anti-tumor responses of SYN-115 in the AT-3ova CD73+ tumour cell mouse model (tumor area); type: in vivo, C57/BL6 mice
Method: (§1) The C57BL/6 mouse breast carcinoma cell line AT-3 was obtained from Dr. Trina Stewart (Griffith University, Nathan, QLD, Australia. Tumor cell lines were transduced to express chicken ovalbumin peptide and CD73 as previously described (1, 2, 3). Tumor cells are periodically verified to be Mycoplasma negative by the Victorian Infectious Diseases References Lab (Melbourne, VIC, Australia) by PCR analysis. Tumor cells were grown in DMEM supplemented with 10% FCS, GlutaMAX, and penicillin/streptomycin. 5×10^5 cells were resuspended in PBS and injected s.c. into C57/BL6 mice in a 100 μL volume. At day 14 tumors were measured and mice were randomized into distinct treatment groups to ensure that each group had tumors of similar size at the onset of treatment. Mice were treated i.p. at days 14, 18, 22, and 26 with either isotype control (2A3; 200 μg/mouse) or anti-PD-1 mAb (RMP1-14, 200 μg/mouse) and where indicated, SYN-115 (Batch 71236AA002) at the indicated dose or vehicle control once-daily via oral gavage on days 14 to 29. To calculate a dose of SYN-115 mouse weight was estimated to be 20 g per mouse. Therefore, 100 mg/kg=2 mg per mouse in 200 μL, which is equivalent to 10 mg/ml. To make up 40 mL, 400 milligrams of SYN-115 was weighed and added into a Falcon tube, then 1 mL of Tween 80 was added and mixed into a paste and then 39 mL of 1% Methyl Cellulose was added. The solution was vortexed and then left on rotating mixer for at least 2 hours and maintained at 4° C. Tumor measurements were taken 2-3 times per week. Tumor sizes were determined by width * length and mice were culled when tumors reached the ethical limit of 150 mm^2.

[2] = test system: AT-3ova CD73+ tumour (mouse breast carcinoma cell line AT-3); experiment: Example 3: anti-tumor responses of SYN-115 QD or BID in the AT-3ova CD73+ tumour cell mouse model (tumor area); type: in vivo, C57/BL6 mice; parameters: key to Raw Tumor Measurements: tumor area, width × length in mm^2
Method: as §1, with “and where indicated SYN-115 (Batch” for “and where indicated, SYN-115 (Batch”, “vehicle control once or twice-daily via oral” for “vehicle control once-daily via oral”, “in […] which is” for “in 200 μL, which is”, “left on a rotating mixer” for “left on rotating mixer”

[3] = test system: B16F10 CD73 melanoma metastases; experiment: Example 8: number of lung tumor metastases in the B16F10 CD73 tumor mouse model; type: in vivo, C57/BL6 mice (A2A-/- or Wild-Type); conditions: 100 mg/kg once-daily oral gavage days 0 to 13, counted day 14, Batch 71236AA002
Method: The C57/BL6 mouse melanoma cell line B16F10 CD73 was cultured in DMEM supplemented with 10% FCS, GlutaMAX, and penicillin/streptomycin. Tumor cells are periodically verified to be Mycoplasma negative by the Victorian Infectious Diseases References
Lab (Melbourne, VIC, Australia) by PCR analysis. 2×10^5 cells were resuspended in PBS and injected i.v. into C57/BL6 mice (A2A^−/− or Wild-Type) in a 200 μL volume. At day 14, lungs were excised and the number of metastases counted under the dissecting microscope. Mice were dosed with either SYN-115 (Batch 71236AA002) at 100 mg/kg or vehicle control once-daily via oral gavage on days 0 to 13. To calculate a dose of SYN-115, mouse weight was estimated to be 20 g per mouse. Therefore, 100 mg/kg=2 mg per mouse in 200 μL, which is equivalent to 10 mg/ml. To make up 40 mL 400 milligrams of SYN-115 was weighed and added into a Falcon tube, then 1 mL of Tween 80 added and mixed into a paste and then 39 mL of 1% Methyl Cellulose was added. Solution was vortexed and then left on rotating mixer for at least 2 hours and maintained at 4° C.

COc1ccc(N2CCOCC2)c2sc(NC(=O)N3CCC(C)(O)CC3)nc12 [SYN-115, 4-hydroxy-4-methyl-piperidine-1-carboxylic acid (4-methoxy-7-morpholin-4-yl-benzothiazol-2-yl)-amide]
Tumor size (width * length) ([1]; 2A3 (200 μg/Mouse)+SYN-115 (100 mg/kg), Day 39): 123.2 mm^2 and 91.35 mm^2 and 103.88 mm^2
Tumor size (width * length) ([1]; 2A3 (200 μg/Mouse)+SYN-115 (100 mg/kg), Day 45): 143 mm^2
Tumor size (width * length) ([1]; Anti-PD-1 (200 ug)+SYN-115 (10 mg/kg), Day 50): 48.38 mm^2 and 66.22 mm^2
Tumor size (width * length) ([1]; Anti-PD-1 (200 ug)+SYN-115 (10 mg/kg), Day 53): 53.6 mm^2 and 83.72 mm^2
Tumor size (width * length) ([1]; Anti-PD-1 (200 ug)+SYN-115 (10 mg/kg), Day 57): 63.19 mm^2 and 81.6 mm^2
Tumor size (width * length) ([1]; Anti-PD-1 (200 ug)+SYN-115 (10 mg/kg), Day 60): 72.72 mm^2 and 80.04 mm^2
Tumor size (width * length) ([1]; Anti-PD-1 (200 ug)+SYN-115 (10 mg/kg), Day 64): 91.64 mm^2 and 104.86 mm^2
Tumor size (width * length) ([1]; Anti-PD-1 (200 ug)+SYN-115 (10 mg/kg), Day 68): 121.26 mm^2
Tumor size (width * length) ([1]; Anti-PD-1 (200 ug)+SYN-115 (30 mg/kg), Day 57): 75.24 mm^2 and 44.22 mm^2
Tumor size (width * length) ([1]; Anti-PD-1 (200 ug)+SYN-115 (30 mg/kg), Day 60): 89.25 mm^2 and 48.28 mm^2
Tumor size (width * length) ([1]; Anti-PD-1 (200 ug)+SYN-115 (30 mg/kg), Day 64): 107.1 mm^2 and 69.52 mm^2
Tumor size (width * length) ([1]; Anti-PD-1 (200 ug)+SYN-115 (30 mg/kg), Day 68): 92.22 mm^2
Tumor size (width * length) ([1]; Anti-PD-1 (200 ug)+SYN-115 (100 mg/kg), Day 45): 101 mm^2 and 129.71 mm^2 and 75.84 mm^2
Tumor size (width * length) ([1]; Anti-PD-1 (200 ug)+SYN-115 (100 mg/kg), Day 50): 136.4 mm^2
Tumor size (width * length) ([2]; 2A3 (200 ug/mouse)+SYN-115 (100 mg/kg) QD, Day 0): 19.38 mm^2 and 14.96 mm^2 and 20 mm^2 and 24.38 mm^2 and 13.26 mm^2 and 18.9 mm^2
Tumor size (width * length) ([2]; 2A3 (200 ug/mouse)+SYN-115 (100 mg/kg) QD, Day 31): 73.1 mm^2
Tumor size (width * length) ([2]; 2A3 (200 ug/mouse)+SYN-115 (100 mg/kg) QD, Day 34): 74.82 mm^2
Tumor size (width * length) ([2]; 2A3 (200 ug/mouse)+SYN-115 (100 mg/kg) QD, Day 39): 86.45 mm^2
Tumor size (width * length) ([2]; 2A3 (200 ug/mouse)+SYN-115 (100 mg/kg) QD, Day 42): 129.87 mm^2
Raw Tumor Measurements ([2]; Anti-PD-1 (200 ug)+SYN-115 (30 mg/kg) BID, Day 0): 12.6 and 15.54 and 22 and 16.38 and 22.68 and 18.36
Raw Tumor Measurements ([2]; Anti-PD-1 (200 ug)+SYN-115 (30 mg/kg) BID, Day 17): 44.08 and 44.22 and 73.92 and 38.86 and 63.24 and 66.64
Raw Tumor Measurements ([2]; Anti-PD-1 (200 ug)+SYN-115 (30 mg/kg) BID, Day 31): 111.28 and 64.74
Raw Tumor Measurements ([2]; Anti-PD-1 (200 ug)+SYN-115 (30 mg/kg) BID, Day 34): 73.1
Raw Tumor Measurements ([2]; Anti-PD-1 (200 ug)+SYN-115 (30 mg/kg) BID, Day 39): 69.6
Raw Tumor Measurements ([2]; Anti-PD-1 (200 ug)+SYN-115 (30 mg/kg) BID, Day 42): 99.51
Raw Tumor Measurements ([2]; Anti-PD-1 (200 ug)+SYN-115 (30 mg/kg) BID, Day 44): 114.33
Tumor size (width * length) ([2]; Anti-PD-1 (200 ug)+SYN-115 (30 mg/kg) QD, Day 28): 58.5 mm^2 and 63.99 mm^2 and 113.1 mm^2
Tumor size (width * length) ([2]; Anti-PD-1 (200 ug)+SYN-115 (30 mg/kg) QD, Day 31): 57.76 mm^2 and 74.82 mm^2
Tumor size (width * length) ([2]; Anti-PD-1 (200 ug)+SYN-115 (30 mg/kg) QD, Day 34): 72.8 mm^2 and 93.06 mm^2
Tumor size (width * length) ([2]; Anti-PD-1 (200 ug)+SYN-115 (30 mg/kg) QD, Day 39): 83.42 mm^2 and 127 mm^2
Tumor size (width * length) ([2]; Anti-PD-1 (200 ug)+SYN-115 (30 mg/kg) QD, Day 42): 127.53 mm^2
Raw Tumor Measurements ([2]; Anti-PD-1 (200 ug)+SYN-115 (100 mg/kg) BID, Day 0): 16.28 and 15.96 and 20.46 and 16.8 and 24.12 and 12.24
Raw Tumor Measurements ([2]; Anti-PD-1 (200 ug)+SYN-115 (100 mg/kg) BID, Day 22): 49.92 and 83.7 and 67.45 and 51.48 and 75.64 and 82.39
Raw Tumor Measurements ([2]; Anti-PD-1 (200 ug)+SYN-115 (100 mg/kg) BID, Day 28): 66.96 and 98.79 and 88.4 and 132.3 and 118.34
Raw Tumor Measurements ([2]; Anti-PD-1 (200 ug)+SYN-115 (100 mg/kg) BID, Day 31): 79.38 and 102.08 and 109.44
Raw Tumor Measurements ([2]; Anti-PD-1 (200 ug)+SYN-115 (100 mg/kg) BID, Day 34): 99.36
Raw Tumor Measurements ([2]; Anti-PD-1 (200 ug)+SYN-115 (100 mg/kg) BID, Day 39): 103.55
Raw Tumor Measurements ([2]; Anti-PD-1 (200 ug)+SYN-115 (100 mg/kg) QD, Day 0): 14.82 and 14.76 and 15.17 and 15.12 and 23.78
Raw Tumor Measurements ([2]; Anti-PD-1 (200 ug)+SYN-115 (100 mg/kg) QD, Day 9): 29.07 and 25 and 29.68 and 26 and 34.78 and 29.25
Raw Tumor Measurements ([2]; Anti-PD-1 (200 ug)+SYN-115 (100 mg/kg) QD, Day 13): 32.45 and 39.33 and 38.19 and 25.48 and 40.7 and 33.5
Raw Tumor Measurements ([2]; Anti-PD-1 (200 ug)+SYN-115 (100 mg/kg) QD, Day 15): 39.33 and 42 and 44.2 and 32.86 and 50.74 and 25.85
Raw Tumor Measurements ([2]; Anti-PD-1 (200 ug)+SYN-115 (100 mg/kg) QD, Day 17): 39.53 and 44.4 and 48 and 31.35 and 52.92 and 44.73
Raw Tumor Measurements ([2]; Anti-PD-1 (200 ug)+SYN-115 (100 mg/kg) QD, Day 20): 48.28 and 61.56 and 66.6 and 48.99 and 61.2 and 51.2
Raw Tumor Measurements ([2]; Anti-PD-1 (200 ug)+SYN-115 (100 mg/kg) QD, Day 24): 51.83 and 72.98 and 86.92 and 53.96 and 85.05 and 46.8
Raw Tumor Measurements ([2]; Anti-PD-1 (200 ug)+SYN-115 (100 mg/kg) QD, Day 28): 55.2 and 90.09 and 97.9 and 77.44 and 95.04 and 77.19
Raw Tumor Measurements ([2]; Anti-PD-1 (200 ug)+SYN-115 (100 mg/kg) QD, Day 31): 74.82 and 128.76 and 81.7 and 101.37 and 79.9
Raw Tumor Measurements ([2]; Anti-PD-1 (200 ug)+SYN-115 (100 mg/kg) QD, Day 34): 79.05 and 95.06 and 81.32
Raw Tumor Measurements ([2]; Anti-PD-1 (200 ug)+SYN-115 (100 mg/kg) QD, Day 39): 81.9 and 104.86 and 82.95
Raw Tumor Measurements ([2]; Anti-PD-1 (200 ug)+SYN-115 (100 mg/kg) QD, Day 42): 127.33 and 132.24
Number of Tumor Metastases (lung), individual mice [3]: 21 and 1 (2×) and 5 and 11 and 13 and 28 and 2 and 8
